Experiment [1] deals with T1, PfHsp70‐x (Plasmodium falciparum, UniProt K7NTP5). Put plainly: SPR nucleotide (ATP) binding assay. The note with it: SPR steady state, PfHsp70‐x immobilized as ligand, ATP 1.25-20 nM, 25°C, PBS-Tween pH 7.4; mean ± SD of three independent assays; read-out: K D (ATP analyte). The method, then:
(§1) The nucleotide binding assay was conducted at 25°C using a BioRad ProteOn XPR36 surface plasmon resonance (SPR) as previously described.22 The assay buffer was constituted of filter sterilized and degassed PBS‐Tween [([…], 1.46 mM KH2PO4, 137 mM NaCl, 3 mM KCl, 0.005% [v/v] Tween 20 and 20 mM EDTA; pH 7.4)]. PfHsp70‐x (1 μg mL^−1) and its truncated version, PfHsp70‐xT (1 μg mL^−1) were immobilized onto respective ProteOn HTE sensor chips as ligands. At these concentrations, we achieved 190 response units (RU) for PfHsp70‐x and 195 RU for PfHsp70‐xT per immobilization surface. Varying concentrations (1.25 nM, 2.50 nM, 5 nM 10 nM and 20 nM) of the analyte (ATP) were injected at a flow rate of 100 μL min^−1 in each horizontal channel and association and dissociation was allowed to occur and monitored for 10 minutes. Steady state equilibrium constant data was processed and analyzed using ProteOn Manager software version 3.1.0.6.

For experiment [2], the target named is T2, PfHsp70‐xT (Plasmodium falciparum, UniProt K7NTP5). The experiment can be described thus: SPR nucleotide (ATP) binding assay. The note with it: SPR steady state, PfHsp70‐xT immobilized as ligand, ATP 1.25-20 nM, 25°C, PBS-Tween pH 7.4; mean ± SD of three independent assays; read-out: K D (ATP analyte). The protocol:
as §1

Experiment [3] has as its target T1, PfHsp70‐x. The experiment can be described thus: SPR peptide substrate binding kinetics. The conditions noted are these: mean ± SD; for pKd: K D, peptide 1.25-20 nM, 25°C, PBS-Tween; for pKd / ka association rate constant: SPR, PfHsp70‐x ligand; for koff: read-out: kd dissociation rate constant, SPR, PfHsp70‐x ligand. The protocol:
(§2) Association of PfHsp70‐x/PfHsp70‐xT with synthetic peptides that represent typical Hsp70 substrates26 was investigated using surface plasmon resonance (SPR) analysis as previously described.22, 24 Briefly, PfHsp70‐x and PfHsp70‐xT were immobilized onto respective ProteOn GLC sensor chips as ligands. PfHsp70‐x, PfHsp70‐xT (as ligands) were immobilized at concentrations of 0.5 and 1 μg mL^−1. At these concentrations we achieved 190 response units (RU) for PfHsp70‐x, and 193 RU for PfHsp70‐xT per immobilization surface. The assay was conducted at 25°C. Filter sterilized and degassed PBS‐Tween was used as the running buffer. As analytes, aliquots of peptides, representing typical Hsp70 substrates (NRLLTG, NRNNTG, ALLLMYRR, ANNNMYRR, GFRVVLMYRF, GFRNNNMYRF) were prepared at final concentration of 1.25, 2.50, 5, 10, and 20 nM and were injected at 50 μL min^−1 in each horizontal channel. Association was allowed for 2 minutes, dissociation was monitored for 10 minutes. The assay was repeated in the presence of nucleotides 2 mM ATP/ADP. The final data were determined by substracting the baseline RU (buffer containing ATP/ADP without analyte peptide). The association rate constant, dissociation rate constant and equilibrium constant data were analyzed using ProteOn Manager software version 3.1.0.6. by concatenating the responses of the analyte at variable concentrations.

Experiment [4] addresses T2, PfHsp70‐xT. The experiment can be described thus: SPR peptide substrate binding kinetics. Details: ka association rate constant: scale not given here. The conditions noted are these: mean ± SD; for pKd: K D, peptide 1.25-20 nM, 25°C, PBS-Tween; for pKd / ka association rate constant: SPR, PfHsp70‐xT ligand; for koff: read-out: kd dissociation rate constant, SPR, PfHsp70‐xT ligand. The protocol: as §2

Experiment [5] deals with T1, PfHsp70‐x. Put plainly: ELISA of direct association with hHop. The note with it: Hop analyte 0.137-300 nM. The class given is binding. The method, then:
The direct association of hHop with PfHsp70‐x was further confirmed using an enzyme linked immunosorbent assay (ELISA) as previously described27 with minor modifications. Briefly, recombinant PfHsp70‐x/PfHsp70‐xT proteins and control BSA (5 μg/mL) were added to wells overnight in 50 mM NaHCO3, pH 9.3 at 4°C. The wells were washed at least three times with TBST, between each subsequent step. After blocking with 1% BSA in TBST, recombinant PfHop protein (analyte) was added in serial dilutions (0.137–300 nM) in the presence or absence of nucleotides (5 mM ATP/ADP) for 2 hours at 25°C. Then the wells were incubated with α‐PfHop primary antibody for 1 hour. Next, primary antibody was incubated with HRP conjugated goat raised anti‐rabbit IgG for 1 hour. HRP development was assayed with TMB substrate solution (Bio‐Scientific, USA) and monitored at 370 nm using a SpectraMax M3 microplate reader (Molecular Devices, USA) every 5 minutes for 30 minutes.

Experiment [6] concerns the target T1, PfHsp70‐x. Put plainly: Slot blot assay of direct association with hHop. The format is binding. The protocol: (§3) Recombinant forms of hHop, control (bovine serum albumin), PfHsp70‐x (positive control) were immobilized onto the nitrocellulose membrane using Bio‐Dot SF apparatus as previously described 22. The proteins were immobilized at final amounts of 2, 4, and 8 μg each respectively per lane. The membrane was blocked with 5% (w/v) fat‐free milk in TBST (50 mM Tris‐HCl pH 7.5, 150 mM NaCl, 0.1% [v/v] Tween 20) and overlaid with either PfHsp70‐x/PfHsp70‐xT (10 μg mL^−1) in the absence and presence of 5 mM ATP/ADP and incubated overnight at 4°C, followed by three washes with TBST for 15 minutes. The nucleotide concentrations were maintained in the subsequent steps of the protocol. Protein was detected by Western blot technique using rabbit raised α‐PfHsp70‐x [1:2000] (Genscript, USA) as primary antibodies and goat raised α‐rabbit IgG secondary HRP‐conjugated antibody [1:4000] (Sigma–Aldrich, USA). Imaging of the protein bands was conducted using the ECL kit as per manufacturer's instructions. The images were captured using ChemiDoc imaging system (Bio‐Rad, USA).

Experiment [7] has as its target T2, PfHsp70‐xT. Put plainly: Slot blot assay of direct association with hHop. The note with it: hHop immobilized 2, 4, 8 μg, overlaid with PfHsp70‐xT 10 μg/mL. The class given is binding. The method, then: as §3
Experiment [8] has as its target T1, PfHsp70‐x. Put plainly: SPR analysis of association with hHop. The class given is binding. The conditions noted are these: 5 mM ATP versus no nucleotide / ADP. The protocol:
The direct association between PfHsp70‐x and hHop was further explored using SPR analysis. The assay was conducted at 25°C using filter sterilized and degassed PBS‐Tween running buffer [(8 mM Na2HPO4, 1.46 mM KH2PO4, 137 mM NaCl, 3 mM KCl, 0.005% [v/v] Tween 20 and 20 mM EDTA; pH 7.4)] as previously described.22, 24 The recombinant PfHsp70‐x /PfHsp70‐xT (1 μg mL^−1) and BSA (as control) were immobilized onto respective ProteOn GLC sensor chips as ligands. As analyte, the recombinant hHop at varying concentrations (125, 250, 500, 1 000, and 2 000 nM) was passed over the immobilized proteins. The analytes were injected at flow rate of 50 μL min^−1 and association and dissociation occurred in a period of 10 minutes. The assay was then repeated in the presence of 5 mM ADP/ATP. The association rate constant, dissociation rate constant, and equilibrium constant data were processed and analyzed using ProteOn Manager software version 3.1.0.6 involving concatenating the responses of the analyte at variable concentrations.
A general note: Surface plasmon resonance follows binding to a sensor surface in real time, without labels.

The values that follow come from paper PMC6282620, “Structural and biochemical characterization of Plasmodium falciparum Hsp70‐x reveals functional versatility of its C‐terminal EEVN motif” (Proteins, 2018).

pKd: −log10 of the molar value. Read-outs that look alike come from different tables or passages of the source. Where no end group is shown, it is not given here.

T2 sequence (K7NTP5 entry or part of it): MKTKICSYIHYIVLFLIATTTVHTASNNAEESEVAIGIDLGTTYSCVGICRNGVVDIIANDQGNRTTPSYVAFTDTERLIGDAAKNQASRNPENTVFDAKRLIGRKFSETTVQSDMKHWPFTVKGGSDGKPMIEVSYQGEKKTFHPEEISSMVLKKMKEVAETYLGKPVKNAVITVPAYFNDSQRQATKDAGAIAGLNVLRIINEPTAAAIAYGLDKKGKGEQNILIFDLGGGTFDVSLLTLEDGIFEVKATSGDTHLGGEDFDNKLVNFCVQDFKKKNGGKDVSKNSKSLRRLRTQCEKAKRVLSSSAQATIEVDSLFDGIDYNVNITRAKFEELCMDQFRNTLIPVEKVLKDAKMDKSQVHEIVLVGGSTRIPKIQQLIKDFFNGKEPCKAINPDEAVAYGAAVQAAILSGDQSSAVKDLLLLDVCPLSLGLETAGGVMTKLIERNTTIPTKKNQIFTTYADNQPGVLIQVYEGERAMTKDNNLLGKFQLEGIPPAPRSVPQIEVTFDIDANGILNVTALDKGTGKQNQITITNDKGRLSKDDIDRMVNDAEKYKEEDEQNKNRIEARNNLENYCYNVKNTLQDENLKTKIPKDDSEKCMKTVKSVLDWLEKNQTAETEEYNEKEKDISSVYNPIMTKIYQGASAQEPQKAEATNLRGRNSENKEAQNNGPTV
T1 sequence (K7NTP5 entry or part of it): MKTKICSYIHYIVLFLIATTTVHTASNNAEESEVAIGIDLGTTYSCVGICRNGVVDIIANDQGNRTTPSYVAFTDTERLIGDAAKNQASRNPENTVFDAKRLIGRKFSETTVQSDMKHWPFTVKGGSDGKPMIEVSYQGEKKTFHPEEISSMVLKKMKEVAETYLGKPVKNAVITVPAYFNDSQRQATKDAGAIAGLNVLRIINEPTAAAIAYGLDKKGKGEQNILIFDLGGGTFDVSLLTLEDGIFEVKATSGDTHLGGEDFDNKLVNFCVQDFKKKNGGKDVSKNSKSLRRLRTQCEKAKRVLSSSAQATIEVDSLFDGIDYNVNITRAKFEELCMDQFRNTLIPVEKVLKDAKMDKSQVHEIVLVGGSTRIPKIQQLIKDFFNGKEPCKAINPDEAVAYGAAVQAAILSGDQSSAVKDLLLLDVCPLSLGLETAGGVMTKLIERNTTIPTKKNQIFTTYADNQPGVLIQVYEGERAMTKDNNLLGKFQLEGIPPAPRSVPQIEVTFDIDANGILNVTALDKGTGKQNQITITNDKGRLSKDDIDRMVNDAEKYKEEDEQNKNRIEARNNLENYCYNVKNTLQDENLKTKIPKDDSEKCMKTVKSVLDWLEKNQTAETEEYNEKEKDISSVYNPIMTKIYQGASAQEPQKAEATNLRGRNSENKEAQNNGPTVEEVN

`Nc1ncnc2c1ncn2[C@@H]1O[C@H](COP(=O)(O)OP(=O)(O)OP(=O)(O)O)[C@@H](O)[C@H]1O` [ATP]: the pKd was 6.96 at PfHsp70‐x [1] and 4.95 at PfHsp70‐xT [2].

ANNNMYRR [ANNNMYRR] showed a pKd on PfHsp70‐x [3] (no nucleotide (NN)) of 8.66.

GFTNNNMYRF [GFTNNNMYRF]: the pKd is 8.85 on PfHsp70‐xT [4] (2 mM ADP), 8.66 on PfHsp70‐xT [4] (no nucleotide (NN)), 8.20 on PfHsp70‐x [3] (2 mM ADP) and 8.62 at PfHsp70‐x [3] (no nucleotide (NN)).

On to “GFTVVLMYRF [GFTVVLMYRF, reference compound]”, for which the koff on PfHsp70‐x [3] (+ ADP) was 1e-05 s⁻¹; on PfHsp70‐x [3] (+ ATP), 0.000117 s⁻¹; on PfHsp70‐x [3] (no nucleotide), 1.03e-05 s⁻¹.

For the compound NRLLTG [NRLLTG, reference compound], the “ka association rate constant” value is recorded as 6.0 (± 0.51) 1/ Ms on PfHsp70‐xT [4] (+ ADP), 3.15 (± 0.31) 1/ Ms on PfHsp70‐xT [4] (no nucleotide), 1.62 (± 0. 22) 1/ Ms on PfHsp70‐x [3] (+ ADP) and 1.21 (± 0.23) 1/ Ms at PfHsp70‐x [3] (+ ATP). The koff at PfHsp70‐xT [4] (+ ADP) was 1e-05 s⁻¹; at PfHsp70‐xT [4] (+ ATP), 0.000161 s⁻¹; at PfHsp70‐xT [4] (no nucleotide) it was 8.67e-06 s⁻¹; at PfHsp70‐x [3] (+ ADP), 1.01e-05 s⁻¹; at PfHsp70‐x [3] (+ ATP) it was 1.01e-05 s⁻¹; at PfHsp70‐x [3] (no nucleotide), 9.97e-06 s⁻¹.

Take NRNNTG [NRNNTG]: the pKd at PfHsp70‐xT [4] (2 mM ADP) is 8.77; at PfHsp70‐xT [4] (no nucleotide (NN)) it was 8.10; on PfHsp70‐x [3] (2 mM ADP), 8.37; on PfHsp70‐x [3] (no nucleotide (NN)) it was 8.16. The “ka association rate constant” value on PfHsp70‐xT [4] (+ ADP) was 5.96 (±0.1) 1/ Ms; on PfHsp70‐xT [4] (+ ATP), 9.37 (±0.17) 1/ Ms; on PfHsp70‐xT [4] (no nucleotide), 3.52 (± 0.18) 1/ Ms; at PfHsp70‐x [3] (+ ADP), 2.55 (± 0.23) 1/ Ms; at PfHsp70‐x [3] (+ ATP), 7.33 (± 0.22) 1/ Ms; at PfHsp70‐x [3] (no nucleotide) it was 2.43 (± 0.45) 1/ Ms. Further, the koff at PfHsp70‐xT [4] (+ ADP) was determined as 1.01e-08 s⁻¹; on PfHsp70‐xT [4] (+ ATP), 1.01e-05 s⁻¹; at PfHsp70‐xT [4] (no nucleotide), 2.79e-08 s⁻¹; on PfHsp70‐x [3] (+ ADP), 1.03e-07 s⁻¹; on PfHsp70‐x [3] (+ ATP), 1.01e-06 s⁻¹; at PfHsp70‐x [3] (no nucleotide) it was 9.49e-07 s⁻¹.

In the case of “hHop: recombinant N-terminally His-tagged human Hsp70‐Hsp90 organizing protein”, the “association with hHop in ELISA” value is on record as “occurs in a concentration dependent form” with PfHsp70‐x [5] (PfHsp70‐x immobilized 5 μg/mL, 2 h, 25°C, no nucleotide); “occurs in a concentration dependent form” with PfHsp70‐x [5] (PfHsp70‐x immobilized, 5 mM ADP); “inhibited the association” in the experiment with PfHsp70‐x [5] (PfHsp70‐x immobilized, 5 mM ATP). Also, the “association with hHop in slot blot” value with PfHsp70‐x [6] (hHop immobilized 2, 4, 8 μg, overlaid with PfHsp70‐x 10 μg/mL, no nucleotide) is reported as “occur in a concentration‐dependent manner”; with PfHsp70‐x [6] (overlaid with PfHsp70‐x, 5 mM ADP), “appeared to enhance the association”; with PfHsp70‐x [6] (overlaid with PfHsp70‐x, 5 mM ATP), “abrogated the interaction”; with PfHsp70‐xT [7], “not observed”. For the same compound, the “inhibition of the PfHsp70‐x-hHop association by ATP” value in the experiment with PfHsp70‐x [8] is on record as “at least tenfold”.
